According to patent EP0410147B1:

Test system: HRV2-2A
Assay type: biochemical
Details: for Spaltung des Peptidsubstrats in trans durch HRV2-2A: 30 min 37°C

Row | Substance | Spaltung des Peptidsubstrats in trans durch HRV2-2A | Spaltung des Peptidsubstrats [%] | Spaltung des Peptidsubstrats durch HRV2-2A in Anwesenheit von 2,5 M NaCl
1 | Ac-TRPIITTAGPSDMYVH-NH2 [Peptid H, Ac-TRPIITTAGPSDMYVH-NH₂] | spezifisch zwischen Alanin und Glycin |  | 
2 | TRPIITTYGPSDMYVH [Peptid K, Peptidsubstrat mit Spaltsignal Tyr/Gly statt Ala/Gly] | mit der gleichen Effizienz wie die nativen Peptidsubstrate vergleichbarer Länge von HRV2-2A gespalten | 100 | vollständige Spaltung
